# Measurements from patent US20230167127A1, “COMPOUNDS AND THEIR USE IN THE TREATMENT OF BACTERIAL INFECTION” (Hoffmann-La Roche Inc., priority 2020, published 2023).
# Tested on: Escherichia coli ATCC 25922
# Test: 50% growth inhibitory concentration (IC50) determination, Iso-Sensitest broth dilution
# Assay type: cell-based
# Conditions: Escherichia coli, ATCC25922, 16 h, strain Escherichia coli ATCC 25922; 10-point broth dilution, optical density at 600 nm over 16 h; read-out: Escherichia coli growth inhibition IC50
# How it was run: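 Growth was tracked as optical density at 600 nm every 20 minutes for 16 h at 35±2° C. Compounds from DMSO stocks were serially diluted twofold over 10 points (e.g. 50–0.097 μM final) in Iso-Sensitest broth. Inhibition computed in log-phase growth to give IC50.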
row,SMILES,IC50
1,"Cc1ncc(F)c2c1CC(NCCCC1CN(c3ccc4c(n3)NC(=O)CO4)C(=O)O1)C2 (stereo not drawn) [Example 78, 6-[5-[3-[(4-fluoro-1-methyl-6,7-dihydro-5H-cyclopenta[c]pyridin-6-yl)amino]propyl]-2-oxo-1,3-oxazolidin-3-yl]-4H-pyrido[3,2-b][1,4]oxazin-3-one]",155 nM
2,"Cc1ncc(F)c2c1CC(NCCCC1CN(c3cnc4c(n3)NC(=O)CO4)C(=O)O1)C2 (stereo not drawn) [Example 79, 6-[5-[3-[(4-fluoro-1-methyl-6,7-dihydro-5H-cyclopenta[c]pyridin-6-yl)amino]propyl]-2-oxo-1,3-oxazolidin-3-yl]-4H-pyrazino[2,3-b][1,4]oxazin-3-one]",< 97.7 nM
3,"N#Cc1cccc2c1CC(NCCCC1CN(c3cnc4c(n3)NC(=O)CO4)C(=O)O1)C2 (stereo not drawn) [Example 80, 2-[3-[2-oxo-3-(3-oxo-4H-pyrazino[2,3-b][1,4]oxazin-6-yl)-1,3-oxazolidin-5-yl]propylamino]-2,3-dihydro-1H-indene-4-carbonitrile]",< 97.7 nM
4,"O=C1COc2ccc(N3CC(CCNCC4Cc5ccnc(Cl)c5C4)OC3=O)nc2N1 (stereo not drawn) [Example 86, 6-[5-[2-[(1-chloro-6,7-dihydro-5H-cyclopenta[c]pyridin-6-yl)methylamino]ethyl]-2-oxo-1,3-oxazolidin-3-yl]-4H-pyrido[3,2-b][1,4]oxazin-3-one]",134 nM
5,"O=C1COc2ccc(N3CC(CCNCC4Cc5ccccc5C4)OC3=O)nc2N1 (stereo not drawn) [Example 87, 6-[5-[2-(2,3-dihydro-1H-inden-2-ylmethylamino)ethyl]-2-oxo-1,3-oxazolidin-3-yl]-4H-pyrido[3,2-b][1,4]oxazin-3-one]",584 nM
6,"Cc1nccc2c1CC(CNCCC1CN(c3ccc4c(n3)NC(=O)CO4)C(=O)O1)C2 (stereo not drawn) [Example 88, 6-[5-[2-[(1-methyl-6,7-dihydro-5H-cyclopenta[c]pyridin-6-yl)methylamino]ethyl]-2-oxo-1,3-oxazolidin-3-yl]-4H-pyrido[3,2-b][1,4]oxazin-3-one]",168 nM
7,"Cc1ccnc2c1CC(CNCCC1CN(c3ccc4c(n3)NC(=O)CO4)C(=O)O1)C2 (stereo not drawn) [Example 89, 6-[5-[2-[(4-methyl-6,7-dihydro-5H-cyclopenta[b]pyridin-6-yl)methylamino]ethyl]-2-oxo-1,3-oxazolidin-3-yl]-4H-pyrido[3,2-b][1,4]oxazin-3-one]",304 nM
8,"N#Cc1nccc2c1CC(CNCCC1CN(c3ccc4c(n3)NC(=O)CO4)C(=O)O1)C2 (stereo not drawn) [Example 90, 6-[[2-[2-oxo-3-(3-oxo-4H-pyrido[3.2-b][1,4]oxazin-6-yl)-1,3-oxazolidin-5-yl]ethylamino]methyl]-6,7-dihydro-5H-cyclopenta[c]pyridine-1-carbonitrile; formic acid]",170 nM
9,"O=C1COc2ccc(N3CC(CCNCC4Cc5cccc(F)c5C4)OC3=O)nc2N1 (stereo not drawn) [Example 91, 6-[5-[2-[(4-fluoro-2,3-dihydro-1H-inden-2-yl)methylamino]ethyl]-2-oxo-1,3-oxazolidin-3-yl]-4H-pyrido[3,2-b][1,4]oxazin-3-one]",< 97.7 nM
10,"O=C1COc2ccc(N3CC(CCCNC4Cc5ccnc(Cl)c5C4)OC3=O)nc2N1 (stereo not drawn) [Example 92, 6-[5-[3-[(1-chloro-6,7-dihydro-5H-cyclopenta[c]pyridin-6-yl)amino]propyl]-2-oxo-1,3-oxazolidin-3-yl]-4H-pyrido[3,2-b][1,4]oxazin-3-one]",373 nM
11,"Cc1nc(C)c2c(c1C)CC(CNCCC1CN(c3ccc4c(n3)NC(=O)CO4)C(=O)O1)C2 (stereo not drawn) [Example 93, 6-[2-oxo-5-[2-[(1,3,4-trimethyl-6,7-dihydro-5H-cyclopenta[c]pyridin-6-yl)methylamino]ethyl]-1,3-oxazolidin-3-yl]-4H-pyrido[3,2-b][1,4]oxazin-3-one]",< 97.7 nM
12,"Cc1nccc2c1CC(NCCCC1CN(c3ccc4c(n3)NC(=O)CO4)C(=O)O1)C2 (stereo not drawn) [Example 94, 6-[5-[3-[(1-methyl-6,7-dihydro-5H-cyclopenta[c]pyridin-6-yl)amino]propyl]-2-oxo-1,3-oxazolidin-3-yl]-4H-pyrido[3,2-b][1,4]oxazin-3-one]",485 nM
13,"N#Cc1nccc2c1CC(NCCCC1CN(c3ccc4c(n3)NC(=O)CO4)C(=O)O1)C2 (stereo not drawn) [Example 95, 6-[3-[2-oxo-3-(3-oxo-4H-pyrido[3,2-b][1,4]oxazin-6-yl)-1,3-oxazolidin-5-yl]propylamino]-6,7-dihydro-5H-cyclopenta[c]pyridine-1-carbonitrile]",232 nM
14,"N#Cc1cccc2c1CC(CN[C@H]1C[C@@H](C3CN(c4ccc5c(n4)NC(=O)CO5)C(=O)O3)C1)C2 (stereo partly drawn) [Example 96, 2-[[[cis-3-[2-oxo-3-(3-oxo-4H-pyrido[3,2-b][1,4]oxazin-6-yl)-1,3-oxazolidin-5-yl]cyclobutyl]amino]methyl]-2,3-dihydro-1H-indene-4-carbonitrile; formic acid]",187 nM
15,"N#Cc1cccc2c1CC(CN[C@H]1C[C@H](C3CN(c4ccc5c(n4)NC(=O)CO5)C(=O)O3)C1)C2 (stereo partly drawn) [Example 97, 2-[[[trans-3-[2-oxo-3-(3-oxo-4H-pyrido[3,2-b][1,4]oxazin-6-yl)-1,3-oxazolidin-5-yl]cyclobutyl]amino]methyl]-2,3-dihydro-1H-indene-4-carbonitrile]",185 nM
16,"Cc1cnc(C)c2c1CC(CNCCC1CN(c3ccc4c(n3)NC(=O)CO4)C(=O)O1)C2 (stereo not drawn) [Example 98, 6-[5-[2-[(1,4-dimethyl-6,7-dihydro-5H-cyclopenta[c]pyridin-6-yl)methylamino]ethyl]-2-oxo-1,3-oxazolidin-3-yl]-4H-pyrido[3,2-b][1,4]oxazin-3-one]",< 97.7 nM
17,"N#Cc1cccc2c1CC(CN[C@H]1CC[C@H](C3CN(c4ccc5c(n4)NC(=O)CO5)C(=O)O3)CC1)C2 (stereo partly drawn) [Example 100, 2-[[[trans-4-[2-oxo-3-(3-oxo-4H-pyrido[3,2-b][1,4]oxazin-6-yl)-1,3-oxazolidin-5-yl]cyclohexyl]amino]methyl]-2,3-dihydro-1H-indene-4-carbonitrile; formic acid]",1260 nM
18,"Cc1nc(OCC2CNC(=O)CO2)c(C)c2c1CC(CNCCC1CN(c3ccc4c(n3)NC(=O)CO4)C(=O)O1)C2 (stereo not drawn) [Example 101, 6-[5-[2-[[1,4-dimethyl-3-[(5-oxomorpholin-2-yl)methoxy]-6,7-dihydro-5H-cyclopenta[c]pyridin-6-yl]methylamino]ethyl]-2-oxo-1,3-oxazolidin-3-yl]-4H-pyrido[3,2-b][1,4]oxazin-3-one]",1390 nM
19,"Cc1nc(OCC2CNC(=O)C2)c(C)c2c1CC(CNCCC1CN(c3ccc4c(n3)NC(=O)CO4)C(=O)O1)C2 (stereo not drawn) [Example 102, 6-[5-[2-[[1,4-dimethyl-3-[(5-oxopyrrolidin-3-yl)methoxy]-6,7-dihydro-5H-cyclopenta[c]pyridin-6-yl]methylamino]ethyl]-2-oxo-1,3-oxazolidin-3-yl]-4H-pyrido[3,2-b][1,4]oxazin-3-one]",871 nM
20,"Cc1nc(OCC2CC(=O)N(C)C2)c(C)c2c1CC(CNCCC1CN(c3ccc4c(n3)NC(=O)CO4)C(=O)O1)C2 (stereo not drawn) [Example 103, 6-[5-[2-[[1,4-dimethyl-3-[(1-methyl-5-oxopyrrolidin-3-yl)methoxy]-6,7-dihydro-5H-cyclopenta[c]pyridin-6-yl]methylamino]ethyl]-2-oxo-1,3-oxazolidin-3-yl]-4H-pyrido[3,2-b][1,4]oxazin-3-one]",1690 nM
21,"N#Cc1nccc2c1CC(CN[C@H]1C[C@@]3(CN(c4ccc5c(n4)NC(=O)CO5)C(=O)O3)C1)C2 (stereo partly drawn) [Example 104, 6-[[[2,4-trans-6-oxo-7-(3-oxo-4H-pyrido[3,2-b][1,4]oxazin-6-yl)-5-oxa-7-azaspiro[3.4]octan-2-yl]amino]methyl]-6.7-dihydro-5H-cyclopenta[c]pyridine-1-carbonitrile]",99.4 nM
22,"Cc1nc(OCCCS(C)(=O)=O)c(C)c2c1CC(CNCCC1CN(c3ccc4c(n3)NC(=O)CO4)C(=O)O1)C2 (stereo not drawn) [Example 105, 6-[5-[2-[[1,4-dimethyl-3-(3-methylsulfonylpropoxy)-6,7-dihydro-5H-cyclopenta[c]pyridin-6-yl]methylamino]ethyl]-2-oxo-1,3-oxazolidin-3-yl]-4H-pyrido[3,2-b][1,4]oxazin-3-one]",1110 nM
23,"COc1nc(C)c2c(c1C)CC(CNCCC1CN(c3ccc4c(n3)NC(=O)CO4)C(=O)O1)C2 (stereo not drawn) [Example 106, 6-[5-[2-[(3-methoxy-1,4-dimethyl-6,7-dihydro-5H-cyclopenta[c]pyridin-6-yl)methylamino]ethyl]-2-oxo-1,3-oxazolidin-3-yl]-4H-pyrido[3,2-b][1,4]oxazin-3-one]",259 nM
24,"CNC(=O)COc1cc(C#N)c2c(c1)CC(CNCCC1CN(c3ccc4c(n3)NC(=O)CO4)C(=O)O1)C2 (stereo not drawn) [Example 107, 2-[[7-cyano-2-[[2-[2-oxo-3-(3-oxo-4H-pyrido[3,2-b][1,4]oxazin-6-yl)-1,3-oxazolidin-5-yl]ethylamino]methyl]-2,3-dihydro-1H-inden-5-yl]oxy]-N-methylacetamide]",235 nM
25,"CNC(=O)COc1ccc2c(c1Cl)CC(CNCCC1CN(c3ccc4c(n3)NC(=O)CO4)C(=O)O1)C2 (stereo not drawn) [Example 108, 2-[[4-chloro-2-[[2-[2-oxo-3-(3-oxo-4H-pyrido[3,2-b][1,4]oxazin-6-yl)-1,3-oxazolidin-5-yl]ethylamino]methyl]-2,3-dihydro-1H-inden-5-yl]oxy]-N-methylacetamide]",< 97.7 nM
26,"CNC(=O)COc1ccc2c(c1Cl)CC(CNCCC1CN(c3cnc4c(n3)NC(=O)CO4)C(=O)O1)C2 (stereo not drawn) [Example 109, 2 2-[[4-chloro-2-[[2-[2-oxo-3-(3-oxo-4H-pyrazino[2,3-b][1,4]oxazin-6-yl)-1,3-oxazolidin-5-yl]ethylamino]methyl]-2,3-dihydro-1H-inden-5-yl]oxy]-N-methylacetamide]",98 nM
27,"CNC(=O)COc1nc(C)c2c(c1C)CC(CNCCC1CN(c3ccc4c(n3)NC(=O)CO4)C(=O)O1)C2 (stereo not drawn) [Example 110, 2-[[1,4-dimethyl-6-[[2-[2-oxo-3-(3-oxo-4H-pyrido[3,2-b][1,4]oxazin-6-yl)-1,3-oxazolidin-5-yl]ethylamino]methyl]-6,7-dihydro-5H-cyclopenta[c]pyridin-3-yl]oxy]-N-methylacetamide]",311 nM
